{
  "source": "patent US12570614B2",
  "about": "“Phenyl amino pyrimidine compounds and uses thereof” (GlaxoSmithKline LLC, priority 2007, dated 2026)",
  "key": {"[1]": {"test_system": "BaF3 wild-type cells", "assay": "Cellular screening, BaF3 wild-type cells (Alamar Blue)", "type": "cell-based", "details": "Mus musculus, 48-72 hr incubation, read-out: BAF3wt_IC50_μM", "outline": "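Parental BaF3 cells in DMEM with 10% FCS and 10% WEHI 3B conditioned medium were seeded at 50,000–200,000 cells/mL (1.1× final). Compounds were added as 10× solutions, with dilution plates prepared at 20 μM.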"}, "[2]": {"test_system": "CTLL2", "assay": "Cellular screening, CTLL2 cells (Alamar Blue)", "type": "cell-based", "details": "Mus musculus, CTLL-2; 48-72 hr incubation; read-out: CTLL2_IC50_μM"}, "[3]": {"test_system": "STAT5 phosphorylation in HEL 92.1.7 cells", "assay": "Intracellular flow cytometric (FACS) analysis of STAT5 phosphorylation in HEL cells", "type": "cell-based, human", "details": "HEL 92.1.7 cells, 0.25, 0.5, 1, or 2 μM, 2 hours", "experimental": "After treatment the cells were stained with mouse monoclonal anti-STAT5 (Y694) PE antibody and analyzed using fluorescence activated cell sorting (FACS). The histograms are shaded according to the fold change in median fluorescence relative to the isotype control (Isocont lane in clear outline).\nThe human erythroleukemic cell line, HEL 92.1.7 (ATCC, TIB-180), was grown in RPMI 1640 containing 10% PCS supplemented with 1 mM sodium pyruvate. For phosphor-STAT 5 determination, HEL cells were grown in RPMI 1640+1% PCS for 18 hours at 37° C. and 2×10^5 cells per assay point were exposed to DMSO/test compounds for 2 hours at 37° C. The cells were centrifuged at 1300 rpm for 3 minutes and fixed in paraformaldehyde (2% final concentration) for 15 minutes at 37° C. After centrifugation, cells were permeabilized in 90% methanol at 4° C. for 30 minutes. […]\nStaining proceeded for 1 hour at room temperature in the dark, followed by 3 washes in PBS-2% FCS. […] The median fluorescence intensity (MFI) was used to determine fold change upon treatment of cells with specific inhibitor compounds, calculated as the MFIstimulated/MFIunstimulated ratio for the phosphospecific antibody fluorescence channel (FL2)."}, "[4]": {"test_system": "STAT5 phosphorylation in HEL 92.1.7 cells", "assay": "Western blot of STAT5 phosphorylation in HEL cells", "type": "cell-based, human", "details": "2 hours", "experimental": "The Western blots were treated with a STAT5 phosphospecific antibody and exposed to film for 5 minutes (top blot) and 1 minute (middle blot).\nThe human erythroleukemic cell line HEL 92.1.7 was routinely maintained in RPMI 1640 media containing 10% FCS. The day before the experiment, cells were washed twice in PBS, resuspended in RPMI 1640 media containing 1% FCS, and cultured overnight.\nCells were then placed on ice and washed twice in ice-cold PBS. Washed cell pellets were snap-frozen in liquid nitrogen and stored at −80° C.\nCell pellets were lysed on ice in RIPA buffer, and lysates clarified by centrifugation (20,000×g, 4° C., 5 min). The protein concentration of lysates was determined by the Bradford method, and equal amounts of protein (60 μg/lane) were separated by SDS-PAGE. Protein was then transferred to PVDF, and Western blotting performed using an antibody that specifically recognizes STAT5 phosphorylated at tyrosine 694. The membrane was then stripped and reprobed with an antibody that recognizes total STAT5 protein."}, "[5]": {"test_system": "Ba/F3 TelJAK2 cells", "assay": "Subcutaneous tumour model of Ba/F3 TelJAK2 cells in nude mice", "type": "in vivo, mouse", "details": "for tumour volumes compared to Vehicle Control Treated Group: after 14 days of dosing; for mean percentage T/C: dosing day 14", "experimental": "Dosing commenced 11 days post-tumour cell inoculation, when tumours were palpable (mean tumour volume of 6 mm^3). Tumour dimensions were measured twice weekly."}},
  "data": [
    {"smiles": "N#CCNC(=O)c1ccc(-c2ccnc(Nc3ccc(N4CCOCC4)cc3)n2)cc1", "note": "[Compound 3, N-(cyanomethyl)-4-(2-(4-morpholinophenyl-amino)pyrimidin-4-yl)benzamide]", "values": [
      {"measurement": "IC50", "setting": "[1]", "result": "< 5", "unit": "µM"},
      {"measurement": "IC50", "setting": "[2]", "result": "< 5", "unit": "µM"},
      {"measurement": "effect on STAT5 phosphorylation (FACS)", "setting": "[3]", "result": "dose-dependent effect"},
      {"measurement": "effect on STAT5 phosphorylation (Western blot)", "setting": "[4]", "result": "decrease in STAT5 phosphorylation"},
      {"measurement": "tumour volumes compared to Vehicle Control Treated Group", "setting": "[5]; 5 mg/kg", "result": "not different"},
      {"measurement": "mean percentage T/C", "setting": "[5]; 5 mg/kg/day oral gavage", "result": 82, "unit": "%"},
      {"measurement": "mean percentage T/C", "setting": "[5]; 10 mg/kg b.i.d. oral gavage", "result": 25, "unit": "%"},
      {"measurement": "tumour volumes compared to Vehicle Control Treated Group", "setting": "[5]; 10 mg/kg b.i.d., t-test p<0.05", "result": "smaller tumour volumes"},
      {"measurement": "mean percentage T/C", "setting": "[5]; 20 mg/kg b.i.d. oral gavage", "result": 39, "unit": "%"},
      {"measurement": "tumour volumes compared to Vehicle Control Treated Group", "setting": "[5]; 20 mg/kg b.i.d., t-test p<0.05", "result": "smaller tumour volumes"}
    ]}
  ]
}
